The values below are quoted from earlier work in patent US8729108B2, “Waterborne topical compositions for the delivery of active ingredients such as azelaic acid” (priority 2008, dated 2014).

For the molecule `O=C(O)CCCCCCCC(=O)O` [Azelaic acid, nonanedioic acid], the “solubility in cosmetic oils” value (cosmetic oils) is reported as “little or no solubility”. In addition, under “water”, the “maximum azelaic acid content of an aqueous solution” value is reported as “about 0.24 % by weight (w/w)”.
